The numbers were not newly measured in PMC5579141, which cites them from elsewhere.

This series can be described thus: not told.

For the molecule `CC(=O)CC(=O)C(F)(F)F`, the “log partition benzene / water” value is reported as 0.15 log10, the “log partition dibutyl ether / water” value is 0.08 log10, the “log partition dichloromethane / water” value was 0.40 log10 and the “log partition dodecane / water” value was −0.76 log10. In addition, the “log partition ethylbenzene / water” value was −0.18 log10, the “log partition heptane / water” value is reported as −0.57 log10, the “log partition hexane / water” value is −0.51 log10 and the “log partition hexanol / water” value is recorded as 0.62 log10. The “log partition nitrobenzene / water” value is 0.30 log10, the “log partition nonanol / water” value is given as 0.59 log10, the “log partition octane / water” value is −0.62 log10 and the “log partition pentanol / water” value is reported as 0.52 log10. Besides, the “log partition tetrachloromethane / water” value was 0.02 log10, the “log partition toluene / water” value is reported as 0.13 log10 and the “log partition trichloromethane / water” value is 0.33 log10.

In the case of `CC(=O)CC(=O)c1ccccc1`, the “log partition 1,2-dichloroethane / water” value is recorded as 3.23 log10, the “log partition benzene / water” value is given as 3.05 log10, the “log partition bromobenzene / water” value is recorded as 3.36 log10 and the “log partition chlorobenzene / water” value is 3.13 log10. For the same molecule, the “log partition cyclohexane / water” value is recorded as 2.11 log10, the “log partition decane / water” value is reported as 2.00 log10, the “log partition decanol / water” value is 2.38 log10 and the “log partition dibutyl ether / water” value is given as 2.36 log10. For the same molecule, the “log partition dichloromethane / water” value is listed as 3.48 log10, the “log partition heptane / water” value is given as 2.03 log10, the “log partition hexanol / water” value is 2.48 log10 and the “log partition m-xylene / water” value was 2.81 log10. Besides, the “log partition nitrobenzene / water” value is listed as 3.19 log10, the “log partition nonane / water” value is 1.97 log10, the “log partition nonanol / water” value is recorded as 2.43 log10 and the “log partition octane / water” value is 2.00 log10. In addition, the “log partition octanol / water” value is 2.52 log10, the “log partition tetrachloromethane / water” value is recorded as 2.77 log10, the “log partition toluene / water” value is given as 2.91 log10 and the “log partition trichloromethane / water” value was 3.50 log10.
